In patent EP4722207A1, “OXOISOINDOLINYL-SUBSTITUTED TETRAHYDROPYRIMIDINEDIONE DERIVATIVE AND USE THEREOF” (Gluetacs Therapeutics (Shanghai) Co., Ltd., priority 2023, dated 2024):

Assays:
CK1α = biological target: T1, CK1α (Homo sapiens, UniProt P48729+Q96SW2); experiment: Western-blot assay, substrate protein degradation in hPBMCs: CK1α; type: cell-based; settings: for CK1α substrate protein remaining %: compounds at 50 nM and 500 nM, 24 hours; for substrate protein remaining % CK1α: 24 hours of compound treatment, 50 nM and 500 nM
T1 construct: effects of the compounds of the present disclosure on the expression of target proteins in cells; endogenous in cells; host or cells: human PBMCs (hPBMCs)

MV-4-11 = experiment: Cell viability assay (CellTiter-Meiluncell Luminescent), tumor cell proliferation, MV-4-11; settings: Homo sapiens, MV4-11, 96 h; for IC50: read-out: inhibitory activity (IC50, nM) against tumor cells proliferation, MV-4-11; for inhibition at 0.01 µM: read-out: Inhibition Rate at 10 nM (%); for inhibition at 0.5 µM: read-out: Inhibition Rate at 500 nM (%)
IKZF3 = biological target: T2, IKZF3 (Homo sapiens, UniProt Q96SW2+Q9UKT9); experiment: Western-blot assay, substrate protein degradation in hPBMCs: IKZF3; type: cell-based; settings: for IKZF3 substrate protein remaining %: compounds at 50 nM and 500 nM, 24 hours; for substrate protein remaining % IKZF3: 24 hours of compound treatment, 50 nM and 500 nM
T2 construct: effects of the compounds of the present disclosure on the expression of target proteins in cells; endogenous in cells; host or cells: human PBMCs (hPBMCs)

IKZF2 = biological target: T3, IKZF2 (Homo sapiens, UniProt Q96SW2+Q9UKS7); experiment: Western-blot assay, substrate protein degradation in hPBMCs: IKZF2; type: cell-based; settings: for IKZF2 substrate protein remaining %: compounds at 50 nM and 500 nM, 24 hours; for substrate protein remaining % IKZF2: 24 hours of compound treatment, 50 nM and 500 nM
T3 construct: effects of the compounds of the present disclosure on the expression of target proteins in cells; endogenous in cells; host or cells: human PBMCs (hPBMCs)

GSPT1 = biological target: T4, GSPT1 (Homo sapiens, UniProt P15170+Q96SW2); experiment: Western-blot assay, substrate protein degradation in hPBMCs: GSPT1; type: cell-based; settings: for GSPT1 substrate protein remaining %: compounds at 50 nM and 500 nM, 24 hours; for substrate protein remaining % GSPT1: 24 hours of compound treatment, 50 nM and 500 nM
T4 construct: effects of the compounds of the present disclosure on the expression of target proteins in cells; endogenous in cells; host or cells: human PBMCs (hPBMCs)

WEE1 = biological target: T5, WEE1 (Homo sapiens, UniProt P30291+Q96SW2); experiment: Western-blot assay, substrate protein degradation in hPBMCs: WEE1; type: cell-based; settings: for WEE1 substrate protein remaining %: compounds at 50 nM and 500 nM, 24 hours; for substrate protein remaining % WEE1: 24 hours of compound treatment, 50 nM and 500 nM
T5 construct: effects of the compounds of the present disclosure on the expression of target proteins in cells; endogenous in cells; host or cells: human PBMCs (hPBMCs)

IKZF1 = biological target: T6, IKZF1 (Homo sapiens, UniProt Q13422+Q96SW2); experiment: Western-blot assay, substrate protein degradation in hPBMCs: IKZF1; type: cell-based; settings: for IKZF1 substrate protein remaining %: compounds at 50 nM and 500 nM, 24 hours; for substrate protein remaining % IKZF1: 24 hours of compound treatment, 50 nM and 500 nM
T6 construct: effects of the compounds of the present disclosure on the expression of target proteins in cells; endogenous in cells; host or cells: human PBMCs (hPBMCs)

H292 = experiment: Cell viability assay (CellTiter-Meiluncell Luminescent), tumor cell proliferation, H292; settings: Homo sapiens, NCI-H292, 96 h; for inhibition at 0.01 µM: read-out: Inhibition Rate at 10 nM (%); for inhibition at 0.5 µM: read-out: Inhibition Rate at 500 nM (%)

T4 sequence (P15170 whole entry): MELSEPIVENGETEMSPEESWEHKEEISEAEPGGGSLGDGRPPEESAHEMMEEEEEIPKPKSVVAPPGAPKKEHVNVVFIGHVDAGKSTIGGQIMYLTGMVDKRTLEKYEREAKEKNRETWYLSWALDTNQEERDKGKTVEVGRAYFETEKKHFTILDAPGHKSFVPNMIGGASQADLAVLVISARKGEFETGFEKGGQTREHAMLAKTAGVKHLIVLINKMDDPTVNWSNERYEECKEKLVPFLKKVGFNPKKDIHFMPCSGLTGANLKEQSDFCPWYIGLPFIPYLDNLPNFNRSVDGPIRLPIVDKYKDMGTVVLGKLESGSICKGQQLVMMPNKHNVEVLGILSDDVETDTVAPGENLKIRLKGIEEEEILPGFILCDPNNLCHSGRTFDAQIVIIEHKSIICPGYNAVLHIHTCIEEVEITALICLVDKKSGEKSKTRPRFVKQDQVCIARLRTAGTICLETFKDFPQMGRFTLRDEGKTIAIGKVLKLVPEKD
T4 sequence (Q96SW2 whole entry): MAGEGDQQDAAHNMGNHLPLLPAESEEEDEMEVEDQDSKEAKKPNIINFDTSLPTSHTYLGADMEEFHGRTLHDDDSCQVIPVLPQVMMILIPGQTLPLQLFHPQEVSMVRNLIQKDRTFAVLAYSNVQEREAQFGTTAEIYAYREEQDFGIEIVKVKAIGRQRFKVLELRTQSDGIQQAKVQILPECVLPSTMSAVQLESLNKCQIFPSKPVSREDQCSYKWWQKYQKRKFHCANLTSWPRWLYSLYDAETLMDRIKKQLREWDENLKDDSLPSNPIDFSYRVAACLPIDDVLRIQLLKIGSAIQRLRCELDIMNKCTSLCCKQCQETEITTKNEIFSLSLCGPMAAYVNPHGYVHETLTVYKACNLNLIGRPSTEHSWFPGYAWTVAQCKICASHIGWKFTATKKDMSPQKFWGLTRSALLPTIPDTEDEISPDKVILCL
T4 sequence (Q16531 whole entry partner): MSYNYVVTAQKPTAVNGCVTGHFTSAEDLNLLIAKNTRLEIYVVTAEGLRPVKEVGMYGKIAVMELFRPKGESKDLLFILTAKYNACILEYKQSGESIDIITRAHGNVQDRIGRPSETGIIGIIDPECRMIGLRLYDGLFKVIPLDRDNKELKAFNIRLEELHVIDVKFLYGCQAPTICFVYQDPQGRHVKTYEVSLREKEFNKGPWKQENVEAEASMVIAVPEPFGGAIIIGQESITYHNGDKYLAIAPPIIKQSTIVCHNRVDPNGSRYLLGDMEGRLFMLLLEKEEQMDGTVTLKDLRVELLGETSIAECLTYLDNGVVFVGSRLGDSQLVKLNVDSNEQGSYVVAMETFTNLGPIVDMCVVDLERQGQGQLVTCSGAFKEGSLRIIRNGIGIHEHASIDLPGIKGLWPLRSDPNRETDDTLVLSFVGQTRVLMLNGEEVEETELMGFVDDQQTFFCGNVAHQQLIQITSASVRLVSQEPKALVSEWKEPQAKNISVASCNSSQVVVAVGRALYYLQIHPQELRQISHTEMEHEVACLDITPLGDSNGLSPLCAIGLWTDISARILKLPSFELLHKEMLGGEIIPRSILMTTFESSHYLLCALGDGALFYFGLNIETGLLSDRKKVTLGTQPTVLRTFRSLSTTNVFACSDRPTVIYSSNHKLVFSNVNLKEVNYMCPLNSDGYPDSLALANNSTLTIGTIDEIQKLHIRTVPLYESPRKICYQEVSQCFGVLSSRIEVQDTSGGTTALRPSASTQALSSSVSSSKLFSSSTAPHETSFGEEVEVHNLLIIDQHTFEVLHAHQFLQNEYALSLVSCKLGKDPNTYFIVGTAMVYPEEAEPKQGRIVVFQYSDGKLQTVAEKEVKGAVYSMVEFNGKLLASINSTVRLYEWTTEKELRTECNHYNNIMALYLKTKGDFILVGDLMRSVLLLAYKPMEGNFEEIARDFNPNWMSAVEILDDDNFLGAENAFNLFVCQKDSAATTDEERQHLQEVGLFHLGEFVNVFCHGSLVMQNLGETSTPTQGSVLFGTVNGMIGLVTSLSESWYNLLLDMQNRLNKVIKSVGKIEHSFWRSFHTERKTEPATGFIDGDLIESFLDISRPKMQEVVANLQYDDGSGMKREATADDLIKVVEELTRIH
T6 sequence (Q13422 whole entry): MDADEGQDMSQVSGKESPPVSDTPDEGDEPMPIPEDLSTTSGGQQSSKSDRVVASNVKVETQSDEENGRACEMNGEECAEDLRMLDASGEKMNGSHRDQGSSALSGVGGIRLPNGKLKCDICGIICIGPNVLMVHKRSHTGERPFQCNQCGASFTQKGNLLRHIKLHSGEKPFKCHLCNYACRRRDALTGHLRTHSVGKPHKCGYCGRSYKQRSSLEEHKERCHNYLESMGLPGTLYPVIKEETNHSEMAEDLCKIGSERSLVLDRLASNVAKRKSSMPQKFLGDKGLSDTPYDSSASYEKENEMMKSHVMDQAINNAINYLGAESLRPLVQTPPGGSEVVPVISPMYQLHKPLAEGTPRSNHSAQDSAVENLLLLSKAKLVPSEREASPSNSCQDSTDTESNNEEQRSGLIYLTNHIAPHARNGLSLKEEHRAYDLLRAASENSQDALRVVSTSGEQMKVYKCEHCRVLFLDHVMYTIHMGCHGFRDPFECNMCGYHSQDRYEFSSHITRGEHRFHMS
T6 sequence (Q96SW2 whole entry): as the sequence (Q96SW2 whole entry) above
T6 sequence (Q16531 whole entry partner): as the sequence (Q16531 whole entry partner) above
T2 sequence (Q9UKT9 whole entry): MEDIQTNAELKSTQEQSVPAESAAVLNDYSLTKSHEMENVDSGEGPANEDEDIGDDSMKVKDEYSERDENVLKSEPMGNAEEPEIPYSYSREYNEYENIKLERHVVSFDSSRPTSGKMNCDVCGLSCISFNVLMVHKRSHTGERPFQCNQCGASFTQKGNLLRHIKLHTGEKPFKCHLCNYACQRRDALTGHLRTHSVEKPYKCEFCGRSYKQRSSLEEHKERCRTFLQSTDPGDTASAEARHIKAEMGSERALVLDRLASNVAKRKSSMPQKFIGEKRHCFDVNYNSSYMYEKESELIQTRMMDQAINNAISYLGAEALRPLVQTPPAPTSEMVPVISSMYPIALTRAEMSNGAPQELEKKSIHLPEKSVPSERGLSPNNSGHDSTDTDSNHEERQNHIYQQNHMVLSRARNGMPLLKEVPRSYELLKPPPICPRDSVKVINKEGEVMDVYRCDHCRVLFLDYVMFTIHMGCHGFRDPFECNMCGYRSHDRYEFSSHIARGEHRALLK
T2 sequence (Q96SW2 whole entry): as the sequence (Q96SW2 whole entry) above
T2 sequence (Q16531 whole entry partner): as the sequence (Q16531 whole entry partner) above
T3 sequence (Q9UKS7 whole entry): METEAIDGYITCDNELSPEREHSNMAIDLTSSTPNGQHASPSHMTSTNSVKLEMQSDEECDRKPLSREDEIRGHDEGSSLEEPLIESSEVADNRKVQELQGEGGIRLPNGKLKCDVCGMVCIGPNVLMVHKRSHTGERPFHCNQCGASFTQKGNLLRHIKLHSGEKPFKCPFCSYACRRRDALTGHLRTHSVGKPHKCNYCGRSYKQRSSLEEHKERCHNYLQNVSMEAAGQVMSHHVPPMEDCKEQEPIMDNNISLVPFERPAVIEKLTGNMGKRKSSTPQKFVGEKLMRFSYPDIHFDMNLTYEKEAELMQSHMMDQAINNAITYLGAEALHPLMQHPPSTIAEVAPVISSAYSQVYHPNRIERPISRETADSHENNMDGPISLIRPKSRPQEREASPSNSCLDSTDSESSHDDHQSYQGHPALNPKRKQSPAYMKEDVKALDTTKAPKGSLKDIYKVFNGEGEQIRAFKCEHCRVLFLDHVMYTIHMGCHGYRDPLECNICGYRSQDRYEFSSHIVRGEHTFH
T3 sequence (Q96SW2 whole entry): as the sequence (Q96SW2 whole entry) above
T3 sequence (Q16531 whole entry partner): as the sequence (Q16531 whole entry partner) above
T5 sequence (P30291 whole entry): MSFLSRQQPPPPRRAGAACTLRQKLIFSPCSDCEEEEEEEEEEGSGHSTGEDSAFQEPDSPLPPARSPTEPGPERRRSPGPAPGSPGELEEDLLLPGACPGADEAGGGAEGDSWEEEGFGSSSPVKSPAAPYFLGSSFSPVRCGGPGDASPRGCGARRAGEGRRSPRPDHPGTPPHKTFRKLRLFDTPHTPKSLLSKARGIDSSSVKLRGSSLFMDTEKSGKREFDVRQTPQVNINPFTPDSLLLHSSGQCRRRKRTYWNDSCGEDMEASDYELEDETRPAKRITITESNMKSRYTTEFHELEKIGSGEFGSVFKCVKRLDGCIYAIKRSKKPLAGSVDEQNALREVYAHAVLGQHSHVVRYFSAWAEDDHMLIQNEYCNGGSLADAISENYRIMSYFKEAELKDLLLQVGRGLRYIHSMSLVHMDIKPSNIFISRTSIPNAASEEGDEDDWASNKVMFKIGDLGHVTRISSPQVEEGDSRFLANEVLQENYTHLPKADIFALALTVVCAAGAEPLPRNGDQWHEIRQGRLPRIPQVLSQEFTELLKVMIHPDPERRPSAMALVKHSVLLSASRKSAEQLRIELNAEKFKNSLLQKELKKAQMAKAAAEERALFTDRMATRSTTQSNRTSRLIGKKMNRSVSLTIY
T5 sequence (Q96SW2 whole entry): as the sequence (Q96SW2 whole entry) above
T5 sequence (Q16531 whole entry partner): as the sequence (Q16531 whole entry partner) above

O=C1CCN(N2Cc3cc(CN4CCN(c5ccccc5)CC4)ccc3C2=O)C(=O)N1 [GT-06696, 1-(1-oxo-5-((4-phenylpiperazin-1-yl)methyl)isoindolin-2-yl)dihydropyrimidine-2,4(1H,3H)-dione]
CK1α substrate protein remaining % (CK1α): B ("B" is defined as 80%< substrate protein remaining %≤ 100%) | IC50 (MV-4-11): 100 to 300 nM | IKZF3 substrate protein remaining % (IKZF3): B ("B" is defined as 80%< substrate protein remaining %≤ 100%) | IKZF2 substrate protein remaining % (IKZF2): B ("B" is defined as 80%< substrate protein remaining %≤ 100%) | GSPT1 substrate protein remaining % (GSPT1): A ("A" is defined as 0% ≤ substrate protein remaining % ≤ 80%) | WEE1 substrate protein remaining % (WEE1): B ("B" is defined as 80%< substrate protein remaining %≤ 100%) | IKZF1 substrate protein remaining % (IKZF1): B ("B" is defined as 80%< substrate protein remaining %≤ 100%)

O=C1CCN(N2Cc3cc(CN4CCN(c5cccc(Br)c5)CC4)ccc3C2=O)C(=O)N1 [GT-06698, 1-(5-((4-(3-bromophenyl)piperazin-1-yl)methyl)-1-oxoisoindolin-2-yl)dihydropyrimidine-2,4(1H,3H)-dione]
CK1α substrate protein remaining % (CK1α): B ("B" is defined as 80%< substrate protein remaining %≤ 100%) | IC50 (MV-4-11): 100 to 300 nM | IKZF3 substrate protein remaining % (IKZF3): B ("B" is defined as 80%< substrate protein remaining %≤ 100%) | IKZF2 substrate protein remaining % (IKZF2): B ("B" is defined as 80%< substrate protein remaining %≤ 100%) | GSPT1 substrate protein remaining % (GSPT1): A ("A" is defined as 0% ≤ substrate protein remaining % ≤ 80%) | WEE1 substrate protein remaining % (WEE1): B ("B" is defined as 80%< substrate protein remaining %≤ 100%) | IKZF1 substrate protein remaining % (IKZF1): B ("B" is defined as 80%< substrate protein remaining %≤ 100%)

COc1cccc(N2CCN(Cc3ccc4c(c3)CN(N3CCC(=O)NC3=O)C4=O)CC2)c1 [GT-06699, 1-(5-((4-(3-methoxyphenyl)piperazin-1-yl)methyl)-1-oxoisoindolin-2-yl)dihydropyrimidine-2,4(1H,3H)-dione]
CK1α substrate protein remaining % (CK1α): B ("B" is defined as 80%< substrate protein remaining %≤ 100%) | IC50 (MV-4-11): 100 to 300 nM | IKZF3 substrate protein remaining % (IKZF3): B ("B" is defined as 80%< substrate protein remaining %≤ 100%) | IKZF2 substrate protein remaining % (IKZF2): B ("B" is defined as 80%< substrate protein remaining %≤ 100%) | GSPT1 substrate protein remaining % (GSPT1): A ("A" is defined as 0% ≤ substrate protein remaining % ≤ 80%) | WEE1 substrate protein remaining % (WEE1): B ("B" is defined as 80%< substrate protein remaining %≤ 100%) | IKZF1 substrate protein remaining % (IKZF1): B ("B" is defined as 80%< substrate protein remaining %≤ 100%)

O=C1CCN(N2Cc3cc(CN4CCN(c5ccc(C(F)(F)F)cc5)CC4)ccc3C2=O)C(=O)N1 [GT-06700, 1-(1-oxo-5-((4-(4-(trifluoromethyl)phenyl)piperazin-1-yl)methyl)isoindolin-2-yl)dihydropyrimidine-2,4(1H,3H)-dione]
IC50 (MV-4-11): 50 to 100 nM

CC1(C)CCC(CN2C3CCC2CN(Cc2ccc4c(c2)C(=O)N(N2CCC(=O)NC2=O)C4=O)C3)=C(c2ccc(Cl)cc2)C1 [GT-07887, 5-((8-((4'-chloro-5,5-dimethyl-3,4,5,6-tetrahydro-[1,1'-biphenyl]-2-yl)methyl)-3,8-diazabicyclo[3.2.1]octan-3-yl)methyl)-2-(2,4-dioxotetrahydropyrimidin-1(2H)-yl)isoindoline-1,3-dione]
inhibition at 0.01 µM (MV-4-11): 25 to 30% | inhibition at 0.5 µM (MV-4-11): 30 to 40%

Cc1nc(N2CCN(Cc3ccc4c(c3)C(=O)N(N3CCC(=O)NC3=O)C4=O)CC2)c2c3c(sc2n1)CCCC3 [GT-08101, 2-(2,4-dioxotetrahydropyrimidin-1(2H)-yl)-5-((4-(2-methyl-5,6,7,8-tetrahydrobenzo[4,5]thieno[2,3-d]pyrimidin-4-yl)piperazin-1-yl)methyl)isoindoline-1,3-dione]
inhibition at 0.01 µM (MV-4-11): 18 to 25% | inhibition at 0.5 µM (MV-4-11): 25 to 30%

O=C1CCN(N2Cc3cc(CN4CCN(c5ncnc6ccsc56)CC4)ccc3C2=O)C(=O)N1 [GT-08443, 1-(1-oxo-5-((4-(thieno[3,2-d]pyrimidin-4-yl)piperazin-1-yl)methyl)isoindolin-2-yl)dihydropyrimidine-2,4(1H,3H)-dione]
substrate protein remaining % CK1α (CK1α): B (80%< substrate protein remaining %≤ 100%) | substrate protein remaining % IKZF3 (IKZF3): B (80%< substrate protein remaining %≤ 100%) | inhibition at 0.01 µM (H292): 20 to 40% | inhibition at 0.5 µM (H292): 40 to 60% | substrate protein remaining % IKZF2 (IKZF2): B (80%< substrate protein remaining %≤ 100%) | substrate protein remaining % GSPT1 (GSPT1): B (80%< substrate protein remaining %≤ 100%) | substrate protein remaining % WEE1 (WEE1): A (0% ≤ substrate protein remaining % ≤ 80%) | substrate protein remaining % IKZF1 (IKZF1): B (80%< substrate protein remaining %≤ 100%)

O=C1CCN(N2C(=O)c3ccc(CN4CCN(c5nc(Cl)nc6c5SCC6)CC4)cc3C2=O)C(=O)N1 [GT-08448, 5-((4-(2-chloro-6,7-dihydrothieno[3,2-d]pyrimidin-4-yl)piperazin-1-yl)methyl)-2-(2,4-dioxotetrahydropyrimidin-1(2H)-yl)isoindoline-1,3-dione]
substrate protein remaining % CK1α (CK1α): B (80%< substrate protein remaining %≤ 100%) | substrate protein remaining % IKZF3 (IKZF3): B (80%< substrate protein remaining %≤ 100%) | inhibition at 0.01 µM (H292): 20 to 40% | inhibition at 0.5 µM (H292): 20 to 40% | substrate protein remaining % IKZF2 (IKZF2): B (80%< substrate protein remaining %≤ 100%) | substrate protein remaining % GSPT1 (GSPT1): A (0% ≤ substrate protein remaining % ≤ 80%) | substrate protein remaining % WEE1 (WEE1): B (80%< substrate protein remaining %≤ 100%) | substrate protein remaining % IKZF1 (IKZF1): B (80%< substrate protein remaining %≤ 100%)

O=C1CCN(N2C(=O)c3ccc(CN4CCN(c5nc6c(c(N7CCOCC7)n5)SCC6)CC4)cc3C2=O)C(=O)N1 [GT-08451, 2-(2,4-dioxotetrahydropyrimidin-1(2H)-yl)-5-((4-(4-morpholino-6,7-dihydrothieno[3,2-d]pyrimidin-2-yl)piperazin-1-yl)methyl)isoindoline-1,3-dione]
substrate protein remaining % CK1α (CK1α): A (0% ≤ substrate protein remaining % ≤ 80%) | substrate protein remaining % IKZF3 (IKZF3): A (0% ≤ substrate protein remaining % ≤ 80%) | inhibition at 0.01 µM (H292): 15 to 20% | inhibition at 0.5 µM (H292): 20 to 40% | substrate protein remaining % IKZF2 (IKZF2): B (80%< substrate protein remaining %≤ 100%) | substrate protein remaining % GSPT1 (GSPT1): B (80%< substrate protein remaining %≤ 100%) | substrate protein remaining % WEE1 (WEE1): B (80%< substrate protein remaining %≤ 100%) | substrate protein remaining % IKZF1 (IKZF1): B (80%< substrate protein remaining %≤ 100%)

O=C1CCN(N2C(=O)c3ccc(CN4CCN(c5ncnc6ccsc56)CC4)cc3C2=O)C(=O)N1 [GT-08452, 2-(2,4-dioxotetrahydropyrimidin-1(2H)-yl)-5-((4-(thieno[3,2-d]pyrimidin-4-yl)piperazin-1-yl)methyl)isoindoline-1,3-dione]
substrate protein remaining % CK1α (CK1α): A (0% ≤ substrate protein remaining % ≤ 80%) | substrate protein remaining % IKZF3 (IKZF3): A (0% ≤ substrate protein remaining % ≤ 80%) | inhibition at 0.01 µM (H292): 20 to 40% | inhibition at 0.5 µM (H292): 5 to 10% | substrate protein remaining % IKZF2 (IKZF2): B (80%< substrate protein remaining %≤ 100%) | substrate protein remaining % GSPT1 (GSPT1): B (80%< substrate protein remaining %≤ 100%) | substrate protein remaining % WEE1 (WEE1): A (0% ≤ substrate protein remaining % ≤ 80%) | substrate protein remaining % IKZF1 (IKZF1): A (0% ≤ substrate protein remaining % ≤ 80%)

O=C1CCN(N2C(=O)c3ccc(CN4CCN(c5nc(Cl)nc6ccsc56)CC4)cc3C2=O)C(=O)N1 [GT-08453, 5-((4-(2-chlorothieno[3,2-d]pyrimidin-4-yl)piperazin-1-yl)methyl)-2-(2,4-dioxotetrahydropyrimidin-1(2H)-yl)isoindoline-1,3-dione]
substrate protein remaining % CK1α (CK1α): A (0% ≤ substrate protein remaining % ≤ 80%) | substrate protein remaining % IKZF3 (IKZF3): A (0% ≤ substrate protein remaining % ≤ 80%) | inhibition at 0.01 µM (H292): 20 to 40% | inhibition at 0.5 µM (H292): 10 to 15% | substrate protein remaining % IKZF2 (IKZF2): B (80%< substrate protein remaining %≤ 100%) | substrate protein remaining % GSPT1 (GSPT1): A (0% ≤ substrate protein remaining % ≤ 80%) | substrate protein remaining % WEE1 (WEE1): B (80%< substrate protein remaining %≤ 100%) | substrate protein remaining % IKZF1 (IKZF1): A (0% ≤ substrate protein remaining % ≤ 80%)

O=C1CCN(N2C(=O)c3ccc(CN4CCN(c5nc(N6CCOCC6)nc6ccsc56)CC4)cc3C2=O)C(=O)N1 [GT-08455, 2-(2,4-dioxotetrahydropyrimidin-1(2H)-yl)-5-((4-(2-morpholinothieno[3,2-d]pyrimidin-4-yl)piperazin-1-yl)methyl)isoindoline-1,3-dione]
substrate protein remaining % CK1α (CK1α): A (0% ≤ substrate protein remaining % ≤ 80%) | substrate protein remaining % IKZF3 (IKZF3): A (0% ≤ substrate protein remaining % ≤ 80%) | inhibition at 0.01 µM (H292): 5 to 10% | inhibition at 0.5 µM (H292): 15 to 20% | substrate protein remaining % IKZF2 (IKZF2): B (80%< substrate protein remaining %≤ 100%) | substrate protein remaining % GSPT1 (GSPT1): A (0% ≤ substrate protein remaining % ≤ 80%) | substrate protein remaining % WEE1 (WEE1): B (80%< substrate protein remaining %≤ 100%) | substrate protein remaining % IKZF1 (IKZF1): B (80%< substrate protein remaining %≤ 100%)
